pIC50: −log10 of the molar value.

This assay concerns the target T1, human Melanin concentrating hormone receptor 1 (MCH1r) (Homo sapiens, UniProt Q99705).
T1 construct: expressed in transfected cells; host or cells: CHO-K1 cells (membranes)
As to the kind of experiment: MCH1 receptor radioligand binding (125I-MCH, CHO-K1 cell membranes). The note with it: human MCHr binding assay. How it is done: MCH1 Receptor Radioligand Binding.
Assays were performed on membranes prepared from CHO-K1 cells expressing the human Melanin concentrating hormone receptor 1 (MCH1r). Assays were performed in a 96-well plate format in a final reaction volume of 200 μl per well. Each well contained 6 μg of membrane proteins diluted in binding buffer (50 mM Tris, 3 mM MgCl2, 0.05% bovine serum albumin (BSA) and the radioligand ^125I-MCH (IM344 Amersham) was added to give 10 000 cpm (counts per minute) per well. Each well contained 2 μl of the appropriate concentration of competitive antagonist prepared in DMSO and left to stand at 30° C. for 60 minutes. Non-specific binding was determined as that remaining following incubation with 1 μM MCH (Melanin concentrating hormone, H-1482 Bachem). The reaction was terminated by transfer of the reaction to GF/A filters using a Micro96 Harvester (Skatron Instruments, Norway). Filters were washed with assay buffer. Radioligand retained on the filters was quantified using a1450 Microbeta TRILUX (Wallac, Finland).
Non-specific binding was subtracted from all values determined. Maximum binding was that determined in the absence of any competitor following subtraction of the value determined for non-specific binding. […]

T1 sequence (Q99705 whole entry): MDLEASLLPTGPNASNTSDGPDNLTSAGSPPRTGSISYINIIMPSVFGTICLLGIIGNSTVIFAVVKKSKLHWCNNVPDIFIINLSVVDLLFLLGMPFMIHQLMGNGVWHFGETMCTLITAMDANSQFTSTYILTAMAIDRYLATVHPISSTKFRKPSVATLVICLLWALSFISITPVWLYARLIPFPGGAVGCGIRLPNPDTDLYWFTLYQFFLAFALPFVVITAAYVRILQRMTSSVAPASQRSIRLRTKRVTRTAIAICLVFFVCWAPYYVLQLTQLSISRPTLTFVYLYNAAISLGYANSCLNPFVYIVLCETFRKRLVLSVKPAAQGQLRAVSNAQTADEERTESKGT

As to `CN(C)c1nc(N[C@H]2CCC[C@H](NCc3cn(C)c4ccccc34)C2)nc2ccccc12` (relative stereo) [Example 4, N^4,N^4-dimethyl-N^2-(-3-{[(1-methyl-1H-indol-3-yl)methyl]amino}-trans-cyclohexyl)quinazoline-2,4-diamine], the pIC50 – broadly, −log10 of the IC50, conventionally taken in molar units – is 7.82.

Values taken from US20070185119A1, “Therapeutic agents II” (ASTRAZENECA AB, priority 2004, published 2007).
